# Test results as given in patent US5496810A, “Pyrimidine deoxyribonucleoside potentiation of combination therapy based on 5-fluorouracil and interferon” (Montefiore Medical Center, priority 1994, dated 1996).
# pIC50: −log10 of the molar value.
# System: HT-29 human carcinoma cells
# Assay: cells
# Settings: for Cloning Efficiency (% of control): 72 hours
# Experimental: HT-29 human carcinoma cells (ATCC No. HTB-38) were maintained in RPMI 1640 with 10%v/v fetal bovine serum (GIBCO) in a humidified, 5% CO2 atmosphere at 37° C. Cells were plated in 24 well plates (150 cells per well) in RPMI 1640 medium with 10% v/v dialyzed fetal bovine serum. […] The various agents were diluted in phosphate-buffered saline (PBS), and control wells received vehicle alone. After 72 hours, drug containing medium was removed and replaced with RPMI 1640 with 10%v/v fetal bovine serum. Cell colonies were allowed to grow for an additional 7-10 days, at which point they were stained and counted. […] Data are means of at least 3 determinations.
# [1] = 5-FU 0, IFN 500 u/ml, 5-ETH or 5-PRO 150 μM
# [2] = 5-FU 0.05 μM, IFN 500 u/ml, 5-ETH or 5-PRO 150 μM
# [3] = 5-FU 0.10 μM, IFN 500 u/ml, 5-ETH or 5-PRO 150 μM
# [4] = 5-FU 0.25 μM, alone (CONT) or with IFN 500 u/ml, 5-ETH or 5-PRO 150 μM
# [5] = 5-FU 0.50 μM, alone (CONT) or with IFN 500 u/ml, 5-ETH or 5-PRO 150 μM
# [6] = 5-FU 1.0 μM, alone (CONT) or with IFN 500 u/ml, 5-ETH or 5-PRO 150 μM
# [7] = 5-FU 1.5 μM, alone (CONT) or with IFN 500 u/ml, 5-ETH or 5-PRO 150 μM
SMILES,increased the cytotoxicity of 5-fluorouracil [times],Cloning Efficiency (% of control) [1] [%],Cloning Efficiency (% of control) [2] [%],Cloning Efficiency (% of control) [3] [%],Cloning Efficiency (% of control) [4] [%],Cloning Efficiency (% of control) [5] [%],Cloning Efficiency (% of control) [6] [%],Cloning Efficiency (% of control) [7] [%],"Cloning Efficiency (% of control) (5-FU 2.0 μM, alone (CONT) or with IFN 500 u/ml, 5-PRO 150 μM) [%]","Cloning Efficiency (% of control) (5-FU 3.0 μM, alone (CONT) or with IFN 500 u/ml, 5-PRO 150 μM) [%]","pIC50 (Homo sapiens, HT-29, 72 h, read-out: 5-FU IC50, with 5-propynyloxy-2'-deoxyuridine (150 μM), 3 days of drug treatment)","inhibition at 2 µM (Homo sapiens, HT-29, 72 h, read-out: reduction in colonies) [%]"
CCOc1cn([C@H]2C[C@H](O)[C@@H](CO)O2)c(=O)[nH]c1=O [5-ethoxy-2'-deoxyuridine],5.7,89,81,80,60,38,13,4,–,–,–,–
"C#CCOc1cn([C@H]2C[C@H](O)[C@@H](CO)O2)c(=O)[nH]c1=O [5-propynyloxy-2'-deoxyuridine, 5-(2-propynyloxy)-2'-deoxyuridine]",7.7,105,100,81,51,26,9,4,2,0,–,–
"O=c1[nH]cc(F)c(=O)[nH]1 [5-FU, 5-fluorouracil]",–,–,–,–,–,–,–,–,–,–,6.59,50
